# In publication PMC6037162 (Journal of the American Chemical Society, 2018):
# Substitutions are numbered along the chain they refer to. Several values for one entry are separate records, joined by “and”; a condition that tells them apart may be missing. Equal values may be shown once.
# Experiments:
# wildtype TIM [1] = conditions: compared with D-GAP; ref [30]; cited from earlier work
# mutant TIMs = assay: Binding of PGA trianion to mutant TIMs, summary of Table 1; format: biochemical; conditions: read-out: (Ki)E; range over mutant TIMs
# wildtype TbbTIM [2] = biological target: T1, wildtype TbbTIM (Trypanosoma brucei brucei, UniProt P04789); conditions: pH profile linear through pH 9.7; ref [14]; cited from earlier work
# Y208F yTIM = biological target: T2, Y208F yTIM (Saccharomyces cerevisiae, UniProt P00942, Y208F); assay: TIM-catalyzed isomerization of GAP; format: biochemical, yeast
# T2 sequence (P00942 1-248 Y208F): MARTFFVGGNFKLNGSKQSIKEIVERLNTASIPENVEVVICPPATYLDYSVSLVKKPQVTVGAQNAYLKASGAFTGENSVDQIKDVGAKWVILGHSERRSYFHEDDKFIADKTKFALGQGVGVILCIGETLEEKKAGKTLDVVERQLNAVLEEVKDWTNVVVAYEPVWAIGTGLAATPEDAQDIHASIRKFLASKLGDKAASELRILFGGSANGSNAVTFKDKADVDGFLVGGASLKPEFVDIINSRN
# wildtype cTIM = wildtype cTIM (Gallus gallus, UniProt P00940); assay: TIM-catalyzed isomerization of GAP; format: biochemical, chicken; conditions: deprotonation of EH·I^3–; estimated from (Ki)E·KEHI and (Ki)E
# wildtype cTIM, sequence (P00940 whole entry): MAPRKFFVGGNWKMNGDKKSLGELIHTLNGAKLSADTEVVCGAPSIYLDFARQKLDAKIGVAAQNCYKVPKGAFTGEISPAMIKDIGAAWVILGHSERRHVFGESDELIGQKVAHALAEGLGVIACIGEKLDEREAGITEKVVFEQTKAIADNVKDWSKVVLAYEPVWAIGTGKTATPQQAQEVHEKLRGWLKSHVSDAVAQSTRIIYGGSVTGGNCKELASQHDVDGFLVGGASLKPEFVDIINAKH
# [3] = biological target: L7R cTIM (loop 7 replacement) (Gallus gallus, UniProt P00940, G210A/S211G/Y208T); assay: TIM-catalyzed isomerization of GAP; format: biochemical, chicken
# L7R cTIM (loop 7 replacement), sequence (P00940 whole entry Y208T/G210A/S211G): as the sequence (P00940 whole entry) above, with Y208T, G210A, S211G counted along it
# wildtype TIM [4] = assay: Binding of PGA trianion to wildtype TIMs, summary of Table 1; format: biochemical
# [5] = Storage stability of PGA stock solutions; format: physicochemical; conditions: solutions at pH 7.5 stored at −20 °C
# S211A yTIM = biological target: T3, S211A yTIM (Saccharomyces cerevisiae, UniProt P00942, S211A); assay: TIM-catalyzed isomerization of GAP; format: biochemical, yeast
# T3 sequence (P00942 1-248 S211A): T2 sequence (P00942 1-248 Y208F) with F208Y, S211A
# [6] = ref [20]; cited from earlier work
# I170A TbbTIM [7] = biological target: T4, I170A TbbTIM (Trypanosoma brucei brucei, UniProt P04789, I172A); conditions: deprotonation of EH·I^3–; ref [14]; cited from earlier work
# I170A TbbTIM [8] = biological target: T4, I170A TbbTIM; assay: TIM-catalyzed isomerization of GAP; format: biochemical
# P166A TbbTIM = P166A TbbTIM (Trypanosoma brucei brucei, UniProt P04789, P168A); assay: TIM-catalyzed isomerization of GAP; format: biochemical; conditions: difference to wildtype enzyme
# wildtype TbbTIM [9] = biological target: T1, wildtype TbbTIM; format: biochemical; conditions: deprotonation of EH·I^3–; estimated from (Ki)E·KEHI and (Ki)E
# [10] = Acidity constants of ligands in water
# [11] = (Ki)E, release of PGA trianion from E^–·I^3–, fit to eq 7
# [12] = deprotonation of EH·I^3–, fit to eq 7
smiles,measurement,setting,value
O=C[C@@H](O)COP(=O)(O)O [L-GAP],binding to TIM,wildtype TIM [1],binds much more weakly to TIM than D-GAP
"O=C(O)COP(=O)(O)O [PGA, 2-Phosphoglycolic acid]",Ki,mutant TIMs,3 to 30 mM
same,pKEHI for release of a proton from the EH·I^3– complex,wildtype TbbTIM [2],> 10
same,Ki,Y208F yTIM; [11],16 mM
same,KEHI,Y208F yTIM; [12],4.9 × 10^–7 M
same,Δ(pK)EHI,Y208F yTIM; difference to wildtype enzyme,4.1
same,Ki,Y208F yTIM; log (Ki)E,15.8 mM
same,KEHI,wildtype cTIM,2.9 × 10^–11 M
same,Ki,[3],2.6 mM
same,KEHI,[3]; [12],1.8 × 10^–7 M
same,Δ(pK)EHI,[3]; difference to wildtype enzyme,3.8
same,binding energy for formation of E^–·I^3–,wildtype TIM [4]; from (Ki)E,3 kcal/mol
same,binding energy of I^3– to EH,wildtype TIM [4]; from (Ki)EH,11.1 to 11.8 kcal/mol
same,stability toward hydrolysis of the phosphoryl group,[5],at least 6 months
same,Ki,S211A yTIM; [11],20 mM and 24 mM
same,Δ(pK)EHI,S211A yTIM; difference to wildtype enzyme,2.2
same,pKa for loss of a proton from PGA dianion to form PGA trianion,[6],6.3
same,KEHI,I170A TbbTIM [7],1.9 × 10^–8 M
same,Ki,I170A TbbTIM [8],7.94 mM
same,Δ(pK)EHI,I170A TbbTIM [8]; difference to wildtype enzyme,2.3
same,Δ(pK)EHI,P166A TbbTIM,0.7
same,KEHI,wildtype TbbTIM [9],1.2 × 10^–11 M
"O=C[C@H](O)COP(=O)(O)O [GAP, D-Glyceraldehyde 3-phosphate]",pKa,[10],6 ± 0.1
